The supplement of paper PMC12370961

Legend:
Experiment in all cases: differential drug sensitivity score (dDSS) relative to sarcoma reference cohort mean DSS (DSS units (0-100 scale difference)); higher = more selective sensitivity than reference sarcomas
Conditions in all cases: exposure time: 72 h; concentration range: 10-10000 nM
ES-ZH016 direct = system: ES-ZH016 direct (Ewing sarcoma cells right after isolation)
Protocol: (§1)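 Drug response profiling of patient-derived Ewing sarcoma and CIC::DUX4 sarcoma tumoroid models (or cells tested directly after isolation from the tumor, 'direct'). The DSS is the normalised AUC (0-100); dDSS is the sample DSS minus the mean DSS of a 34-sarcoma reference cohort profiled in the same lab.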

CDS-ZH003 = system: CDS-ZH003 (patient-derived CIC-DUX4 sarcoma tumoroid)
Protocol: as §1

CDS-ZH001 = system: CDS-ZH001 (patient-derived CIC-DUX4 sarcoma tumoroid)
Protocol: as §1

ES-ZH009 = system: ES-ZH009 (patient-derived Ewing sarcoma tumoroid)
Protocol: as §1

ES-ZH002 = system: ES-ZH002 (patient-derived Ewing sarcoma tumoroid)
Protocol: as §1

ES-ZH016 = system: ES-ZH016 (patient-derived Ewing sarcoma tumoroid)
Protocol: as §1

ES-ZH007 = system: ES-ZH007 (patient-derived Ewing sarcoma tumoroid)
Protocol: as §1

ES-ZH004 = system: ES-ZH004 (patient-derived Ewing sarcoma tumoroid)
Protocol: as §1

ES-ZH001 = system: ES-ZH001 (patient-derived Ewing sarcoma tumoroid)
Protocol: as §1

CDS-ZH002 direct = system: CDS-ZH002 direct (CIC-DUX4 sarcoma cells right after isolation)
Protocol: as §1

ES-ZH008 = system: ES-ZH008 (patient-derived Ewing sarcoma tumoroid)
Protocol: as §1

CDS-ZH001-2 = system: CDS-ZH001-2 (patient-derived CIC-DUX4 sarcoma tumoroid)
Protocol: as §1

CDS-ZH002 = system: CDS-ZH002 (patient-derived CIC-DUX4 sarcoma tumoroid)
Protocol: as §1

SMILES	differential drug sensitivity score (ES-ZH016 direct)	differential drug sensitivity score (CDS-ZH003)	differential drug sensitivity score (CDS-ZH001)	differential drug sensitivity score (ES-ZH009)	differential drug sensitivity score (ES-ZH002)	differential drug sensitivity score (ES-ZH016)	differential drug sensitivity score (ES-ZH007)	differential drug sensitivity score (ES-ZH004)	differential drug sensitivity score (ES-ZH001)	differential drug sensitivity score (CDS-ZH002 direct)	differential drug sensitivity score (ES-ZH008)	differential drug sensitivity score (CDS-ZH001-2)	differential drug sensitivity score (CDS-ZH002)
COc1cc2nccc(Oc3ccc(NC(=O)C4(C(=O)Nc5ccc(F)cc5)CC4)cc3)c2cc1OC [Cabozantinib]	-2.6	-1.5	-2.6	-1.5	3.4	-2.4	-1	5.9	3.6	-2	1.7	-2.6	-2.6
CC(C)C[C@H](NC(=O)[C@H](CCc1ccccc1)NC(=O)CN1CCOCC1)C(=O)N[C@@H](Cc1ccccc1)C(=O)N[C@@H](CC(C)C)C(=O)[C@@]1(C)CO1 [Carfilzomib]	6.8	4.4	5.3	10.8	9.9	4.3	12.2	10.9	8.2	5.5	4	6	0.7
O=NN(CCCl)C(=O)NCCCl [Carmustine]	2.1	-1.3	-1.3	-1.3	7.3	1.1	-1.3	1.6	2.6	-1.2	1.4	-0.5	-1.2
C[C@@H]1COCCN1c1cc(C2([S@](C)(=N)=O)CC2)nc(-c2cc[nH]c3nccc2-3)n1 [Ceralasertib]	13.8	-4.4	0	2.1	12	4.5	3	5.7	5.9	-2.5	9.7	0.7	-0.4
Cc1cc(Nc2ncc(Cl)c(Nc3ccccc3S(=O)(=O)C(C)C)n2)c(OC(C)C)cc1C1CCNCC1 [Ceritinib]	3.7	0.3	4.9	2.1	11.7	3.4	3.8	3.5	2.9	-0.1	4.9	7	0.4
Nc1nc(Cl)nc2c1ncn2[C@@H]1O[C@H](CO)[C@@H](O)[C@@H]1F [Clofarabine]	8.4	-4.8	-12	3.9	20.2	15.7	19	4.8	17.7	-4.3	3.6	-1.8	-4.3
O=C(c1ccc(F)c(F)c1Nc1ccc(I)cc1F)N1CC(O)([C@@H]2CCCCN2)C1 [Cobimetinib]	-3.5	-6.7	-5.4	-4.5	2.5	-3.8	-3	0	1.4	-3.5	-6.2	-5.7	-6.7
C[C@H](NC(=O)CCC(F)(F)F)C(=O)N[C@@H]1C(=O)N(CCO)c2ncccc2-c2ccccc21 [Crenigacestat]	1	-2.3	-2.3	-2.3	13.6	-2.3	-2.3	5.8	5.8	-0.6	6.4	0.3	-0.2
CC1(COc2ccc3c(c2)ncn3-c2ccc3cccc(N4CCC(N)CC4)c3n2)COC1 [Crenolanib]	1.2	-4.2	2.5	2.8	3.4	-1.3	4	2.9	4	-1.7	-0.6	1.4	-2.3
C[C@@H](Oc1cc(-c2cnn(C3CCNCC3)c2)cnc1N)c1c(Cl)ccc(F)c1Cl [Crizotinib]	4	1.6	2.3	0.5	7.3	0	5.1	-1.9	3.1	-3.4	1.2	4.4	-0.9
O=P1(N(CCCl)CCCl)NCCCO1 (centres undefined) [Cyclophosphamide]	-0.3	-0.3	1.7	-0.3	3.8	-0.3	-0.3	-0.3	-0.3	-0.3	-0.3	-0.3	-0.3
Nc1ccn([C@@H]2O[C@H](CO)[C@@H](O)[C@@H]2O)c(=O)n1 [Cytarabine]	11.6	0.8	-12.4	-6.1	21.1	12.5	17	4.4	8.3	-8.5	22.9	3.3	1.3
CC(C)(C)c1nc(-c2cccc(NS(=O)(=O)c3c(F)cccc3F)c2F)c(-c2ccnc(N)n2)s1 [Dabrafenib]	2.3	-1.2	-1.2	3.9	7.7	-1.2	-1.1	-0.7	11.1	-1.2	0.8	-1.2	-1.2
CN(C)/N=N/c1[nH]cnc1C(N)=O [Dacarbazine]	-0.8	-0.7	-0.8	0.9	7.5	-0.8	-0.8	0.1	-0.7	-0.8	2.8	-0.7	-0.8
Cc1c2oc3c(C)ccc(C(=O)N[C@@H]4C(=O)N[C@H](C(C)C)C(=O)N5CCC[C@H]5C(=O)N(C)CC(=O)N(C)[C@@H](C(C)C)C(=O)O[C@@H]4C)c3nc-2c(C(=O)N[C@@H]2C(=O)N[C@H](C(C)C)C(=O)N3CCC[C@H]3C(=O)N(C)CC(=O)N(C)[C@@H](C(C)C)C(=O)O[C@@H]2C)c(N)c1=O [Dactinomycin]	9.9	12.7	12.1	12.8	11.1	11.8	8.7	7.5	9.7	11.9	12.5	11.9	11.4
Cn1c(=O)n(-c2ccc(C(C)(C)C#N)cc2)c2c3cc(-c4cnc5ccccc5c4)ccc3ncc21 [Dactolisib]	-7.5	3.4	3.3	13.6	5	-2.5	1.5	1	3	1.1	-0.5	1.3	-0.4
Cc1nc(Nc2ncc(C(=O)Nc3c(C)cccc3Cl)s2)cc(N2CCN(CCO)CC2)n1 [Dasatinib]	9.3	-9.6	-11.9	-7	2.2	-10.8	-6.8	-3.6	-4.5	8.9	-7.5	-4.6	-3.2
COc1cccc2c1C(=O)c1c(O)c3c(c(O)c1C2=O)C[C@@](O)(C(C)=O)C[C@@H]3O[C@H]1C[C@H](N)[C@H](O)[C@H](C)O1 [Daunorubicin]	12.9	0.8	4.9	12.6	21.7	12.2	-5.2	-4.5	9.1	2.7	3.2	13.2	2.8
Nc1ncn([C@H]2C[C@H](O)[C@@H](CO)O2)c(=O)n1 [Decitabine]	13.3	-7	0.1	1.3	21.4	4.4	5.1	6.4	5.8	2.2	5.7	1.7	-1.8
CCC[C@H](NC(=O)/C(C#N)=C/c1cccc(Br)n1)c1ccccc1 [Degrasyn]	-0.2	0.7	-1.4	-1.4	4.8	-0.8	-1.4	-1.1	-1.4	-1.4	0.7	-1.4	-1.1
CC(C)C[C@H](NC(=O)[C@@H](NC(=O)c1cccc(-c2ccccc2)n1)[C@@H](C)O)B(O)O [Delanzomib]	2.4	1.1	5.4	5.8	9.6	0	5.7	2.1	7.9	6.7	5.7	4.9	1.2
C[C@@H]1C[C@H]2[C@@H]3CCC4=CC(=O)C=C[C@]4(C)[C@@]3(F)[C@@H](O)C[C@]2(C)[C@@]1(O)C(=O)CO [Dexamethasone]	-0.5	-0.5	-0.5	-0.5	-0.5	-0.5	-0.5	-0.5	-0.5	0.6	-0.5	-0.5	-0.5
CCc1cnn2c(NCc3ccc[n+]([O-])c3)cc(N3CCCC[C@H]3CCO)nc12 [Dinaciclib]	11.6	14	14	13.8	11.7	12.2	9.6	9.8	9.8	12.8	6.6	11.5	12
CC(=O)O[C@@]12CO[C@@H]1C[C@H](O)[C@@]1(C)C(=O)[C@H](O)C3=C(C)[C@@H](OC(=O)[C@H](O)[C@@H](NC(=O)OC(C)(C)C)c4ccccc4)C[C@@](O)([C@@H](OC(=O)c4ccccc4)[C@H]21)C3(C)C [Docetaxel]	17.1	-20.9	-0.1	26.8	23.8	20	5.3	5.9	24.4	2	11.4	6.8	-3.2
CN1CCN(c2ccc3nc(-c4c(N)c5c(F)cccc5[nH]c4=O)[nH]c3c2)CC1 [Dovitinib]	7.6	-4	-2.9	1.5	6.3	-3.2	-3.8	-1.9	0.4	-1.6	1.7	1.1	-4
COc1cccc2c1C(=O)c1c(O)c3c(c(O)c1C2=O)C[C@@](O)(C(=O)CO)C[C@@H]3O[C@H]1C[C@H](N)[C@H](O)[C@H](C)O1 [Doxorubicin]	11	5	3.1	15.7	20.9	12.8	-10.2	-3.3	6.8	3.1	-0.7	10.6	4.7
C[C@H](Nc1ncnc2nc[nH]c12)c1cc2cccc(Cl)c2c(=O)n1-c1ccccc1 [Duvelisib]	4.2	-1.2	4.2	9.1	1.9	3.4	-2.7	-4.4	-5.6	0.6	-1.1	4.4	1.2
CN(NC(=O)CC(=O)NN(C)C(=S)c1ccccc1)C(=S)c1ccccc1 [Elesclomol]	7.7	-5.7	-6	-0.7	18.6	-6	28.6	40.9	0.9	-6	6.3	2	-4
